Data on one compound can be found in patent US20250230125A1 (The Board of Regents of The University of Texas System, priority 2022, published 2025).

One series has as its target T1, 5-HT3 (Homo sapiens, UniProt P46098).
T1 sequence (P46098 24-478): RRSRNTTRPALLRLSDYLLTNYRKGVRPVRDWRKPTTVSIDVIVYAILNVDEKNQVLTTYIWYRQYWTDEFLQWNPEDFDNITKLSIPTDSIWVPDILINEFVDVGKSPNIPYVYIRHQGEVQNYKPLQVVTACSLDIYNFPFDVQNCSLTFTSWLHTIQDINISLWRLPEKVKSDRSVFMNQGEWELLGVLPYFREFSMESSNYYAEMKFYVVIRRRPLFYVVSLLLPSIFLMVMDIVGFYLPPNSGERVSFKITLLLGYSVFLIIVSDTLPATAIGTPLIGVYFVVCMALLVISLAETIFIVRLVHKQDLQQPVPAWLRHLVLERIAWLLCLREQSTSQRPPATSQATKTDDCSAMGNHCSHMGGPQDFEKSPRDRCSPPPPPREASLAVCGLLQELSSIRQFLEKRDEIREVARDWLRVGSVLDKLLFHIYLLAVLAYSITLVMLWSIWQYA
As to the kind of experiment: NIMH PDSP radioligand binding displacement, 5-HT3. The settings on record: radioligand [^3H]-LY278584. The text has this:
. To explore the off-target profile of the two compounds, the National Institute of Mental Health (NIMH) Psychoactive Drug Screening Program (PDSP) were utilized to assess in a broad-panel of GPCRs and monoamine transporters (Table 4). […]. [table]

Another series has as its system hMDRI-MDCKII cells. In words: MDCK-MDR1 membrane permeability and efflux. In kind it is in vitro ADME.
Series [1] can be described thus: Rat liver microsomal intrinsic clearance. It is filed as in vitro ADME. The settings on record: rat liver microsomes. (Liver microsomes are vesicles of endoplasmic reticulum, rich in cytochrome P450 enzymes.)
The target in series [2] is T2, CYP3A4 (Homo sapiens, UniProt P08684). The conditions noted are these: microsomes, 10 µM.
Series [3] has as its target T3, CYP2B6 (Homo sapiens, UniProt P20813).
T3 sequence (P20813 1-491): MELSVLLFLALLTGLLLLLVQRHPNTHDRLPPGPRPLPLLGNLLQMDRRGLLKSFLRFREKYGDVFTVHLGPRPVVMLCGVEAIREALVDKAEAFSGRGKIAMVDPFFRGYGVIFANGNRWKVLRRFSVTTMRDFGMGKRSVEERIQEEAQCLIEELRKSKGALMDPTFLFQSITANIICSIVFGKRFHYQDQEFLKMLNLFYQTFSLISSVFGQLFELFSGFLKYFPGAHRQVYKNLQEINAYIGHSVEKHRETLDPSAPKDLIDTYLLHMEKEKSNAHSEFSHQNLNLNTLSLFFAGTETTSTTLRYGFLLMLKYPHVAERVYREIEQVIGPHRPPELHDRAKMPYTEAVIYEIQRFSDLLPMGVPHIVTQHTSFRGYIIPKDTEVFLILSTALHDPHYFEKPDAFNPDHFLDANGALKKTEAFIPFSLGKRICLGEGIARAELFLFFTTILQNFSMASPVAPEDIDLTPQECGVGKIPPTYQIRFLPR
The conditions noted are these: microsomes, 10 µM.

Series [4] addresses T4, CYP2C8 (Homo sapiens, UniProt P10632).
T4 sequence (P10632 1-490): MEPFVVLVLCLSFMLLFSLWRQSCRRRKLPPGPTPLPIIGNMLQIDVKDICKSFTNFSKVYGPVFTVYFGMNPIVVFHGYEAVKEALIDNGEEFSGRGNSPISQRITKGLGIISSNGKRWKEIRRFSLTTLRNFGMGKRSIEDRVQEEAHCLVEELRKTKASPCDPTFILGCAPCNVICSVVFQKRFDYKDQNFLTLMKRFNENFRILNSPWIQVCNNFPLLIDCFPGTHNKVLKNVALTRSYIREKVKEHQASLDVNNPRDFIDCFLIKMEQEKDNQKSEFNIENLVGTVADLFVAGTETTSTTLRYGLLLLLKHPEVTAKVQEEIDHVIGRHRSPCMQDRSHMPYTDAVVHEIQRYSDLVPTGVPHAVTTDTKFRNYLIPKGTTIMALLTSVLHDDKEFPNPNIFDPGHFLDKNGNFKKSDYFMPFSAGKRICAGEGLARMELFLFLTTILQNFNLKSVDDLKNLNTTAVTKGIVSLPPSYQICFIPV
The conditions noted are these: microsomes, 10 µM.

Series [5] addresses T5, CYP2C9 (Homo sapiens, UniProt P11712). The settings on record: microsomes, 10 µM.
Series [6] has as its target T6, CYP2C19 (Homo sapiens, UniProt P33261). The settings on record: microsomes, 10 µM.
Series [7] deals with T7, CYP2D6 (Homo sapiens, UniProt P10635). The conditions noted are these: microsomes, 10 µM.
In series [8] the target is T2, CYP3A4. In words: in vitro. The settings on record: microsomes.
For series [9], the target named is T3, CYP2B6. As to the kind of experiment: in vitro. The settings on record: microsomes.
The target of series [10] is T4, CYP2C8. In words: in vitro. The settings on record: microsomes.
The target in series [11] is T5, CYP2C9. As to the kind of experiment: in vitro. The settings on record: microsomes.
In series [12] the target is T6, CYP2C19. In words: in vitro. The conditions noted are these: microsomes.
The target of series [13] is T7, CYP2D6. In words: in vitro. The settings on record: microsomes.
For a further series, the target named is T8, CYP1A2 (Homo sapiens, UniProt P05177).
T8 sequence (P05177 1-516): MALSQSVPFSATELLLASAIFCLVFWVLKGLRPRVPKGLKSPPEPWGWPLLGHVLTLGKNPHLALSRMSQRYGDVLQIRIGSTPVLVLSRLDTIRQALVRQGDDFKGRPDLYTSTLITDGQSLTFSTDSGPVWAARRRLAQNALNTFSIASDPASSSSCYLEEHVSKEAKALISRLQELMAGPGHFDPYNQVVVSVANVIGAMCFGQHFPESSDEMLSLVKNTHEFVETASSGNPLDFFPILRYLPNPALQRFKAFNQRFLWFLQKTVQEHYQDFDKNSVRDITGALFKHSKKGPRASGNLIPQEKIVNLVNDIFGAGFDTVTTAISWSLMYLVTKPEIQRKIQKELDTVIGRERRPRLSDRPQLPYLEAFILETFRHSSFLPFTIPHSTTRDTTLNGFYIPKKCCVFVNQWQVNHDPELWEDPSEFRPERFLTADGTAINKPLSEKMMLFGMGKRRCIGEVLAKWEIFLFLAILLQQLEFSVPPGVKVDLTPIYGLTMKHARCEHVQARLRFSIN
As to the kind of experiment: Human liver microsomes P450 inhibition, CYP1A2.

T7 sequence (P10635 whole entry): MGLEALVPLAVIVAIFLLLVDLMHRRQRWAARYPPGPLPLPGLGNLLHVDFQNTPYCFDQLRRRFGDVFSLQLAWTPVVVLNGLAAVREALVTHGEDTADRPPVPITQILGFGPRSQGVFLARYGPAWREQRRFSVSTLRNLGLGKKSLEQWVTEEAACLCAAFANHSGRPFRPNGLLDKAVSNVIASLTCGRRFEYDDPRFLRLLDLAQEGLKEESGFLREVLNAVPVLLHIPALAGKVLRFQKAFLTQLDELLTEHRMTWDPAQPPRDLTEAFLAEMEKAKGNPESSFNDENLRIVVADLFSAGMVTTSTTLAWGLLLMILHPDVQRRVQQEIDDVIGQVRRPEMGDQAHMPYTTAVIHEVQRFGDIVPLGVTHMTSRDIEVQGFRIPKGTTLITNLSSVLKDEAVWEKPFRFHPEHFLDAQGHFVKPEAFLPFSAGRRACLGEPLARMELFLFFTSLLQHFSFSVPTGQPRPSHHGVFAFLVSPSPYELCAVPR
T2 sequence (P08684 whole entry): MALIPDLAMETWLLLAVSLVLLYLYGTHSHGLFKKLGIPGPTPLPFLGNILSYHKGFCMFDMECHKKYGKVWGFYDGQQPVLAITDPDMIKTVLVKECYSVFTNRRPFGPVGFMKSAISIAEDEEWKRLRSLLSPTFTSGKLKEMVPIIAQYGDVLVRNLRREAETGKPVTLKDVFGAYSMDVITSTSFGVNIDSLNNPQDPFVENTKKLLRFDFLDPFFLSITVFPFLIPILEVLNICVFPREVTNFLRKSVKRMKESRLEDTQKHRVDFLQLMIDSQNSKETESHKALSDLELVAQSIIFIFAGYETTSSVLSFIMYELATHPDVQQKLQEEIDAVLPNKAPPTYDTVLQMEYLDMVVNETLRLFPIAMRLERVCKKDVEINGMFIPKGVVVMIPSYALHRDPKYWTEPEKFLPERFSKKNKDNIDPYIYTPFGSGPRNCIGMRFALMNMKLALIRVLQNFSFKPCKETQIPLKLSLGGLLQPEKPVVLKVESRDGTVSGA
T6 sequence (P33261 whole entry): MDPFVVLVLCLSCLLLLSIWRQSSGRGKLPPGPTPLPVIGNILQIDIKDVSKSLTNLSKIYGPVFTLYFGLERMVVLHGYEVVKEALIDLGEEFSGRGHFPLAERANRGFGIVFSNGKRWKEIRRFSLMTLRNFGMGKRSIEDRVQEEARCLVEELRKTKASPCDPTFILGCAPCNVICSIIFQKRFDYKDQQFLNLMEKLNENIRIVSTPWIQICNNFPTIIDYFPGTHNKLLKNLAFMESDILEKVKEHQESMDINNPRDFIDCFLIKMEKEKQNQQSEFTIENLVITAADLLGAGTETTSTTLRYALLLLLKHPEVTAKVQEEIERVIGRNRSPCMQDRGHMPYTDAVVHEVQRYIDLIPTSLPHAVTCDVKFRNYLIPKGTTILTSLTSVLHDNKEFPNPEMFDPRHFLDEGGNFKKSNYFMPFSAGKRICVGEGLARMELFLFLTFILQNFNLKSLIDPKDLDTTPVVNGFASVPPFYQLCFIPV
T5 sequence (P11712 whole entry): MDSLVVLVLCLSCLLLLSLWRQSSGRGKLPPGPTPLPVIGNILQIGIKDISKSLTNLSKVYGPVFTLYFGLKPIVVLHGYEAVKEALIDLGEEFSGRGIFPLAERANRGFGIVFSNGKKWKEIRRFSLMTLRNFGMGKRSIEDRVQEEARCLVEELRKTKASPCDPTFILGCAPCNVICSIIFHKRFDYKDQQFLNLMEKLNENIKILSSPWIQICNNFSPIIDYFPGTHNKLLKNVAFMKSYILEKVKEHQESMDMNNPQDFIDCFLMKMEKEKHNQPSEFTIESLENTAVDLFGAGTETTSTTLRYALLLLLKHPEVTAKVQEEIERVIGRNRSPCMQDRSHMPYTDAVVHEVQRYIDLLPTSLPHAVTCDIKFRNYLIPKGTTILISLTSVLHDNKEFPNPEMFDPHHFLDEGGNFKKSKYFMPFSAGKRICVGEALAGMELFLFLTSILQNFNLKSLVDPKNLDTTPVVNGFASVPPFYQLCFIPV

Take `CCCCCCCC/C=C\CCCCCCCC(=O)NC(CO)(CO)CO` [Compound 13, N-(1,3-dihydroxy-2-(hydroxymethyl)propan-2-yl)]: the inhibition at 10 µM is 5.63% on 5-HT3; below 20% against CYP3A4 [8]; above 50% on CYP2B6 [9]; below 20% at CYP2C8 [10]; below 20% against CYP2C9 [11]; below 20% against CYP2C19 [12]. For the same compound, the inhibition at 10 µM is below 20% at CYP2D6 [13] and below 20% against CYP1A2 (human, microsomes). The PappB→A entry in the series on hMDRI-MDCKII cells (With Pgp inhibitor) was “PappB→A = 4.77 × 10^−6 cm/s”; with hMDRI-MDCKII cells (Without Pgp inhibitor), “PappB→A = 3.23 × 10^−6 cm/s”. Besides, the “Liver microsomal clearance CLR” value in series [1] is reported as “CLR = 174.66 μL/min/mg”. Moreover, at CYP3A4 [2], the “Inhibitory % CYP3A4 (midazolam)” value was determined as 18.72%. Further, at CYP2B6 [3], the “Inhibitory % CYP2B6” value is 53.31%. For the same compound, the “Inhibitory % CYP2C8” value on CYP2C8 [4] worked out at 11.87%. Also, the “Inhibitory % CYP2C9” value on CYP2C9 [5] was 21.2%. At CYP2C19 [6], the “Inhibitory % CYP2C19” value is on record as 18.34%. The “Inhibitory % CYP2D6” value at CYP2D6 [7] is 10.13%. In addition, the “Inhibitory % CYP1A2” value on CYP1A2 (10 μM, human liver microsomes) was 3.4%.

Usually inhibition stands for the change of the read-out against control, counted positive when it falls. Higher therefore signals strong suppression.
